Laboratory results as given in ChEMBL document CHEMBL3585344, “Thiazole-based aminopyrimidines and N-phenylpyrazolines as potent antimicrobial agents: synthesis and biological evaluation” (2014).
≈ marks a conversion by molar mass, not a printed value.

What was measured:
Aspergillus ochraceus [1] = assay: Antifungal activity against Aspergillus ochraceus ATCC 12066 after 72 hrs by microdilution method; format: functional; conditions: ATCC 12066, 72 h
Listeria monocytogenes [2] = assay: Bactericidal activity against Listeria monocytogenes NCTC 7973 after 72 hrs by microdilution method; format: functional
Escherichia coli [3] = assay: Antibacterial activity against Escherichia coli ATCC 35210 after 24 hrs by microdilution method; format: functional; conditions: ATCC 35210, 24 h
Aspergillus versicolor [4] = assay: Fungicidal activity against Aspergillus versicolor ATCC 11730 after 72 hrs by microdilution method; format: functional
Pseudomonas aeruginosa [5] = assay: Antibacterial activity against Pseudomonas aeruginosa ATCC 27853 after 24 hrs by microdilution method; format: functional; conditions: ATCC 27853, 24 h
Aspergillus niger [6] = assay: Fungicidal activity against Aspergillus niger ATCC 6275 after 72 hrs by microdilution method; format: functional
Trichoderma viride [7] = assay: Fungicidal activity against Trichoderma viride IAM 5061 after 72 hrs by microdilution method; format: functional
Aspergillus fumigatus [8] = assay: Fungicidal activity against Aspergillus fumigatus isolated from human after 72 hrs by microdilution method; format: functional
Staphylococcus aureus [9] = assay: Bactericidal activity against Staphylococcus aureus ATCC 6538 after 72 hrs by microdilution method; format: functional
Pseudomonas aeruginosa [10] = assay: Bactericidal activity against Pseudomonas aeruginosa ATCC 27853 after 72 hrs by microdilution method; format: functional
Penicillium ochrochloron [11] = assay: Antifungal activity against Penicillium ochrochloron ATCC 9112 after 72 hrs by microdilution method; format: functional; conditions: ATCC 9112, 72 h
Enterococcus faecalis [12] = assay: Antibacterial activity against Enterococcus faecalis ATCC 7080 isolated from human after 24 hrs by microdilution method; format: functional; conditions: ATCC 7080, 24 h
Talaromyces funiculosus [13] = assay: Fungicidal activity against Penicillium funiculosum ATCC 36839 after 72 hrs by microdilution method; format: functional
Penicillium ochrochloron [14] = assay: Fungicidal activity against Penicillium ochrochloron ATCC 9112 after 72 hrs by microdilution method; format: functional
Trichoderma viride [15] = assay: Antifungal activity against Trichoderma viride IAM 5061 after 72 hrs by microdilution method; format: functional; conditions: IAM 5061, 72 h
Staphylococcus aureus [16] = assay: Antibacterial activity against Staphylococcus aureus ATCC 6538 after 24 hrs by microdilution method; format: functional; conditions: ATCC 6538, 24 h
Talaromyces funiculosus [17] = assay: Antifungal activity against Penicillium funiculosum ATCC 36839 after 72 hrs by microdilution method; format: functional; conditions: ATCC 36839, 72 h
Salmonella typhimurium [18] = assay: Bactericidal activity against Salmonella typhimurium ATCC 13311 after 72 hrs by microdilution method; format: functional, Salmonella enterica subsp. enterica serovar Typhimurium
Aspergillus flavus [19] = assay: Antifungal activity against Aspergillus flavus ATCC 9643 after 72 hrs by microdilution method; format: functional; conditions: ATCC 9643, 72 h
Aspergillus versicolor [20] = assay: Antifungal activity against Aspergillus versicolor ATCC 11730 after 72 hrs by microdilution method; format: functional; conditions: ATCC 11730, 72 h
Bacillus cereus [21] = assay: Antibacterial activity against Bacillus cereus clinical isolate after 24 hrs by microdilution method; format: functional
Salmonella typhimurium [22] = assay: Antibacterial activity against Salmonella typhimurium ATCC 13311 after 24 hrs by microdilution method; format: functional, Salmonella enterica subsp. enterica serovar Typhimurium; conditions: Salmonella enterica, ATCC 13311, 24 h
Listeria monocytogenes [23] = assay: Antibacterial activity against Listeria monocytogenes NCTC 7973 after 24 hrs by microdilution method; format: functional; conditions: NCTC 7973, 24 h
Micrococcus flavus [24] = assay: Antibacterial activity against Micrococcus flavus ATCC 10240 after 24 hrs by microdilution method; format: functional; conditions: ATCC 10240, 24 h
Escherichia coli [25] = assay: Bactericidal activity against Escherichia coli ATCC 35210 after 72 hrs by microdilution method; format: functional
Aspergillus niger [26] = assay: Antifungal activity against Aspergillus niger ATCC 6275 after 72 hrs by microdilution method; format: functional; conditions: ATCC 6275, 72 h
Micrococcus flavus [27] = assay: Bactericidal activity against Micrococcus flavus ATCC 10240 after 72 hrs by microdilution method; format: functional
Enterococcus faecalis [28] = assay: Bactericidal activity against Enterococcus faecalis ATCC 7080 isolated from human after 72 hrs by microdilution method; format: functional
Aspergillus fumigatus [29] = assay: Antifungal activity against Aspergillus fumigatus isolated from human after 72 hrs by microdilution method; format: functional
Aspergillus flavus [30] = assay: Fungicidal activity against Aspergillus flavus ATCC 9643 after 72 hrs by microdilution method; format: functional
Aspergillus ochraceus [31] = assay: Fungicidal activity against Aspergillus ochraceus ATCC 12066 after 72 hrs by microdilution method; format: functional
Bacillus cereus [32] = assay: Bactericidal activity against Bacillus cereus clinical isolate after 72 hrs by microdilution method; format: functional

| Structure (SMILES) | MIC (Aspergillus ochraceus [1]) [µM] | MBC99.5 (Listeria monocytogenes [2]) [×10⁻² umol/ml] | MIC (Escherichia coli [3]) [µM] | MFC99.5 (Aspergillus versicolor [4]) [×10⁻² umol/ml] | MIC (Pseudomonas aeruginosa [5]) [µM] | MFC99.5 (Aspergillus niger [6]) [×10⁻² umol/ml] | MFC99.5 (Trichoderma viride [7]) [×10⁻² umol/ml] | MFC99.5 (Aspergillus fumigatus [8]) [×10⁻² umol/ml] | MBC99.5 (Staphylococcus aureus [9]) [×10⁻² umol/ml] | MBC99.5 (Pseudomonas aeruginosa [10]) [×10⁻² umol/ml] | MIC (Penicillium ochrochloron [11]) [µM] | MIC (Enterococcus faecalis [12]) [µM] | MFC99.5 (Talaromyces funiculosus [13]) [×10⁻² umol/ml] | MFC99.5 (Penicillium ochrochloron [14]) [×10⁻² umol/ml] | MIC (Trichoderma viride [15]) [µM] | MIC (Staphylococcus aureus [16]) [µM] | MIC (Talaromyces funiculosus [17]) [µM] | MBC99.5 (Salmonella typhimurium [18]) [×10⁻² umol/ml] | MIC (Aspergillus flavus [19]) [µM] | MIC (Aspergillus versicolor [20]) [µM] | further results |
| --- | --- | --- | --- | --- | --- | --- | --- | --- | --- | --- | --- | --- | --- | --- | --- | --- | --- | --- | --- | --- | --- |
| Cc1nc(-c2ccccc2)sc1-c1cc(-c2ccccc2)nc(N)n1 | 14.5 (≈ 4.99 µg/mL) | 36.25 | 348 (≈ 120 µg/mL) | 9 | 290 (≈ 99.9 µg/mL) | 40.6 | 29 | 34.8 | 5.8 | 40.6 | 348 (≈ 120 µg/mL) | 290 (≈ 99.9 µg/mL) | 34.8 | 40.6 | 14.5 (≈ 4.99 µg/mL) | 14.5 (≈ 4.99 µg/mL) | 348 (≈ 120 µg/mL) | 34.8 | 58 (≈ 20 µg/mL) | 14.5 (≈ 4.99 µg/mL) | MIC (Bacillus cereus [21]): 58 µM (≈ 20 µg/mL); MIC (Salmonella typhimurium [22]): 290 µM (≈ 99.9 µg/mL); MIC (Listeria monocytogenes [23]): 14.5 µM (≈ 4.99 µg/mL); MIC (Micrococcus flavus [24]): 58 µM (≈ 20 µg/mL); MBC99.5 (Escherichia coli [25]): 40.6 ×10⁻² umol/ml; MIC (Aspergillus niger [26]): 58 µM (≈ 20 µg/mL); MBC99.5 (Micrococcus flavus [27]): 29 ×10⁻² umol/ml; MBC99.5 (Enterococcus faecalis [28]): 34.8 ×10⁻² umol/ml; MIC (Aspergillus fumigatus [29]): 58 µM (≈ 20 µg/mL); MFC99.5 (Aspergillus flavus [30]): 29 ×10⁻² umol/ml; MFC99.5 (Aspergillus ochraceus [31]): 5.8 ×10⁻² umol/ml; MBC99.5 (Bacillus cereus [32]): 40.6 ×10⁻² umol/ml |
| CCNc1nc(C)c(C2=NN(c3ccccc3)C(c3ccccc3)C2)s1 (stereo unspecified) | 27.6 (≈ 10 µg/mL) | 11.04 | 276 (≈ 100 µg/mL) | 27.6 | 276 (≈ 100 µg/mL) | 44.16 | 30.9 | 44.16 | 27.6 | 44.16 | 309 (≈ 112 µg/mL) | 110 (≈ 40 µg/mL) | 30.9 | 44.16 | 276 (≈ 100 µg/mL) | 27.6 (≈ 10 µg/mL) | 110 (≈ 40 µg/mL) | 30.9 | 110 (≈ 40 µg/mL) | 55.2 (≈ 20 µg/mL) | MIC (Bacillus cereus [21]): 55.2 µM (≈ 20 µg/mL); MIC (Salmonella typhimurium [22]): 276 µM (≈ 100 µg/mL); MIC (Listeria monocytogenes [23]): 55.2 µM (≈ 20 µg/mL); MIC (Micrococcus flavus [24]): 110 µM (≈ 40 µg/mL); MBC99.5 (Escherichia coli [25]): 44.16 ×10⁻² umol/ml; MIC (Aspergillus niger [26]): 309 µM (≈ 112 µg/mL); MBC99.5 (Micrococcus flavus [27]): 44.16 ×10⁻² umol/ml; MBC99.5 (Enterococcus faecalis [28]): 27.6 ×10⁻² umol/ml; MIC (Aspergillus fumigatus [29]): 110 µM (≈ 40 µg/mL); MFC99.5 (Aspergillus flavus [30]): 27.6 ×10⁻² umol/ml; MFC99.5 (Aspergillus ochraceus [31]): 11.04 ×10⁻² umol/ml; MBC99.5 (Bacillus cereus [32]): 27.6 ×10⁻² umol/ml |
| CNc1nc(C)c(C2=NN(c3ccccc3)C(c3ccc(C)cc3)C2)s1 (stereo unspecified) | 96 (≈ 34.8 µg/mL) | 11.04 | 276 (≈ 100 µg/mL) | 27.6 | 276 (≈ 100 µg/mL) | 58.6 | 11.04 | 44.16 | 27.6 | 33.12 | 276 (≈ 100 µg/mL) | 442 (≈ 160 µg/mL) | 44.16 | 44.6 | 55.2 (≈ 20 µg/mL) | 110 (≈ 40 µg/mL) | 276 (≈ 100 µg/mL) | 27.6 | 110 (≈ 40 µg/mL) | 55.2 (≈ 20 µg/mL) | MIC (Bacillus cereus [21]): 55.2 µM (≈ 20 µg/mL); MIC (Salmonella typhimurium [22]): 110 µM (≈ 40 µg/mL); MIC (Listeria monocytogenes [23]): 96 µM (≈ 34.8 µg/mL); MIC (Micrococcus flavus [24]): 276 µM (≈ 100 µg/mL); MBC99.5 (Escherichia coli [25]): 58.6 ×10⁻² umol/ml; MIC (Aspergillus niger [26]): 442 µM (≈ 160 µg/mL); MBC99.5 (Micrococcus flavus [27]): 58.6 ×10⁻² umol/ml; MBC99.5 (Enterococcus faecalis [28]): 58.64 ×10⁻² umol/ml; MIC (Aspergillus fumigatus [29]): 276 µM (≈ 100 µg/mL); MFC99.5 (Aspergillus flavus [30]): 27.6 ×10⁻² umol/ml; MFC99.5 (Aspergillus ochraceus [31]): 11.04 ×10⁻² umol/ml; MBC99.5 (Bacillus cereus [32]): 27.6 ×10⁻² umol/ml |
